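All cell lines were grown in 96-well plates and treated with compound for 48 hours. TGI is the concentration that stops growth completely.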

In the first assay the test system is A549 NSCLC. As to the kind of experiment: NCI tumour cell line growth inhibition, 48 h.
The molecule `CCOc1cc(NC(C)=O)ccc1C(=O)NN1C(=O)C(Cl)C1c1ccccc1` (stereo not given) registered a TGI of 33.3 µM.
Same read-out and setting: to `CCCCCCCCCCCCCCCCCCNc1ccn(C2OC(COP(=O)(O)OCC3OC(n4cc(F)c(=O)[nH]c4=O)CC3O)C(O)C2O)c(=O)n1` (stereo not given) belongs > 100 µM.
As to `CC(C)=CCC/C(C)=C/CC/C(C)=C/CC/C(C)=C/C=C/C=C(\C)CC/C=C(\C)CC/C=C(\C)CCC=C(C)C`, the TGI is > 100 µM.
Same read-out and setting: to `CN(CCCCCl)P(=O)(OCc1ccc([N+](=O)[O-])o1)OC[C@H]1O[C@@H](n2cc(F)c(=O)[nH]c2=O)C[C@@H]1O` (stereo not given in full) belongs > 26.4 µM.
Same read-out and setting: the value for `CCCCCCCCCCCCCCCCCCNC(=O)C(N)Cc1ccc(OCc2ccccc2)cn1` (stereo not given) was 42.6 µM; that for `CC(C)Cn1cnc2c(NCC(C)O)nc3ccccc3c21` (stereo not given) was > 100 µM.

The subject of the next assay is COLO 205 colon. As to the kind of experiment: NCI tumour cell line growth inhibition, 48 h.
`CCOc1cc(NC(C)=O)ccc1C(=O)NN1C(=O)C(Cl)C1c1ccccc1` (stereo not given): the TGI is 31.8 µM.
On to `CCCCCCCCCCCCCCCCCCNc1ccn(C2OC(COP(=O)(O)OCC3OC(n4cc(F)c(=O)[nH]c4=O)CC3O)C(O)C2O)c(=O)n1` (stereo not given), for which the TGI was > 80.4 µM.
The same measure, in the same setting: the value for `CC(C)=CCC/C(C)=C/CC/C(C)=C/CC/C(C)=C/C=C/C=C(\C)CC/C=C(\C)CC/C=C(\C)CCC=C(C)C` was > 100 µM; that for `CN(CCCCCl)P(=O)(OCc1ccc([N+](=O)[O-])o1)OC[C@H]1O[C@@H](n2cc(F)c(=O)[nH]c2=O)C[C@@H]1O` (stereo not given in full) was 16.5 µM.
The same measure, in the same setting: to `CCCCCCCCCCCCCCCCCCNC(=O)C(N)Cc1ccc(OCc2ccccc2)cn1` (stereo not given) belongs 28.8 µM.
Still for that read-out and setting: to `CC(C)Cn1cnc2c(NCC(C)O)nc3ccccc3c21` (stereo not given) belongs > 100 µM.

Another assay deals with SK-MEL-28 melanoma. As to the kind of experiment: NCI tumour cell line growth inhibition, 48 h.
Consider `CCOc1cc(NC(C)=O)ccc1C(=O)NN1C(=O)C(Cl)C1c1ccccc1` (stereo not given), for which the TGI came out at 36.4 µM.
Still for that read-out and setting: the value for `CCCCCCCCCCCCCCCCCCNc1ccn(C2OC(COP(=O)(O)OCC3OC(n4cc(F)c(=O)[nH]c4=O)CC3O)C(O)C2O)c(=O)n1` (stereo not given) was > 100 µM.
As for `CC(C)=CCC/C(C)=C/CC/C(C)=C/CC/C(C)=C/C=C/C=C(\C)CC/C=C(\C)CC/C=C(\C)CCC=C(C)C`, the TGI was > 100 µM.
Still for that read-out and setting: to `CN(CCCCCl)P(=O)(OCc1ccc([N+](=O)[O-])o1)OC[C@H]1O[C@@H](n2cc(F)c(=O)[nH]c2=O)C[C@@H]1O` (stereo not given in full) belongs > 61.3 µM; to `CCCCCCCCCCCCCCCCCCNC(=O)C(N)Cc1ccc(OCc2ccccc2)cn1` (stereo not given), 50.8 µM.
Still for that read-out and setting: the value for `CC(C)Cn1cnc2c(NCC(C)O)nc3ccccc3c21` (stereo not given) was > 100 µM.

Another assay has as its system HL-60(TB) leukemia. As to the kind of experiment: NCI tumour cell line growth inhibition, 48 h.
`CCOc1cc(NC(C)=O)ccc1C(=O)NN1C(=O)C(Cl)C1c1ccccc1` (stereo not given) had a TGI of 36.1 µM.
Still for that read-out and setting: to `CCCCCCCCCCCCCCCCCCNc1ccn(C2OC(COP(=O)(O)OCC3OC(n4cc(F)c(=O)[nH]c4=O)CC3O)C(O)C2O)c(=O)n1` (stereo not given) belongs 22.1 µM; to `CC(C)=CCC/C(C)=C/CC/C(C)=C/CC/C(C)=C/C=C/C=C(\C)CC/C=C(\C)CC/C=C(\C)CCC=C(C)C`, 4.96 µM; to `CN(CCCCCl)P(=O)(OCc1ccc([N+](=O)[O-])o1)OC[C@H]1O[C@@H](n2cc(F)c(=O)[nH]c2=O)C[C@@H]1O` (stereo not given in full), > 23.6 µM.
On the same count and under the same terms, the value for `CCCCCCCCCCCCCCCCCCNC(=O)C(N)Cc1ccc(OCc2ccccc2)cn1` (stereo not given) was 37.1 µM; that for `CC(C)Cn1cnc2c(NCC(C)O)nc3ccccc3c21` (stereo not given) was > 100 µM.

For the next assay, the system named is NCI-H460 lung. As to the kind of experiment: NCI tumour cell line growth inhibition, 48 h.
`CCOc1cc(NC(C)=O)ccc1C(=O)NN1C(=O)C(Cl)C1c1ccccc1` (stereo not given) came in with a TGI of 33.6 µM.
Turning to `CCCCCCCCCCCCCCCCCCNc1ccn(C2OC(COP(=O)(O)OCC3OC(n4cc(F)c(=O)[nH]c4=O)CC3O)C(O)C2O)c(=O)n1` (stereo not given), the TGI is > 100 µM.
The same measure, in the same setting: to `CC(C)=CCC/C(C)=C/CC/C(C)=C/CC/C(C)=C/C=C/C=C(\C)CC/C=C(\C)CC/C=C(\C)CCC=C(C)C` belongs > 58.4 µM; to `CN(CCCCCl)P(=O)(OCc1ccc([N+](=O)[O-])o1)OC[C@H]1O[C@@H](n2cc(F)c(=O)[nH]c2=O)C[C@@H]1O` (stereo not given in full), 45.5 µM.
Same read-out and setting: to `CCCCCCCCCCCCCCCCCCNC(=O)C(N)Cc1ccc(OCc2ccccc2)cn1` (stereo not given) belongs 29.9 µM; to `CC(C)Cn1cnc2c(NCC(C)O)nc3ccccc3c21` (stereo not given), > 100 µM.

The test system of another assay is EKVX NSCLC. As to the kind of experiment: NCI tumour cell line growth inhibition, 48 h.
Molecule `CCOc1cc(NC(C)=O)ccc1C(=O)NN1C(=O)C(Cl)C1c1ccccc1` (stereo not given) gave a TGI of 28.7 µM.
Consider `CCCCCCCCCCCCCCCCCCNc1ccn(C2OC(COP(=O)(O)OCC3OC(n4cc(F)c(=O)[nH]c4=O)CC3O)C(O)C2O)c(=O)n1` (stereo not given), for which the TGI was > 100 µM.
For `CC(C)=CCC/C(C)=C/CC/C(C)=C/CC/C(C)=C/C=C/C=C(\C)CC/C=C(\C)CC/C=C(\C)CCC=C(C)C`, the TGI is > 93.3 µM.
The same measure, in the same setting: to `CN(CCCCCl)P(=O)(OCc1ccc([N+](=O)[O-])o1)OC[C@H]1O[C@@H](n2cc(F)c(=O)[nH]c2=O)C[C@@H]1O` (stereo not given in full) belongs > 100 µM; to `CCCCCCCCCCCCCCCCCCNC(=O)C(N)Cc1ccc(OCc2ccccc2)cn1` (stereo not given), 46.8 µM.
On the same count and under the same terms, the value for `CC(C)Cn1cnc2c(NCC(C)O)nc3ccccc3c21` (stereo not given) was > 100 µM.

The test system of another assay is K-562 leukemia. As to the kind of experiment: NCI tumour cell line growth inhibition, 48 h.
The molecule `CCOc1cc(NC(C)=O)ccc1C(=O)NN1C(=O)C(Cl)C1c1ccccc1` (stereo not given) returned a TGI of 23.9 µM.
As for `CCCCCCCCCCCCCCCCCCNc1ccn(C2OC(COP(=O)(O)OCC3OC(n4cc(F)c(=O)[nH]c4=O)CC3O)C(O)C2O)c(=O)n1` (stereo not given), the TGI was > 100 µM.
As to `CC(C)=CCC/C(C)=C/CC/C(C)=C/CC/C(C)=C/C=C/C=C(\C)CC/C=C(\C)CC/C=C(\C)CCC=C(C)C`, the TGI is > 31.6 µM.
As for `CN(CCCCCl)P(=O)(OCc1ccc([N+](=O)[O-])o1)OC[C@H]1O[C@@H](n2cc(F)c(=O)[nH]c2=O)C[C@@H]1O` (stereo not given in full), the TGI is > 59.4 µM.
Consider `CCCCCCCCCCCCCCCCCCNC(=O)C(N)Cc1ccc(OCc2ccccc2)cn1` (stereo not given), for which the TGI came to 95.1 µM.
Same read-out and setting: to `CC(C)Cn1cnc2c(NCC(C)O)nc3ccccc3c21` (stereo not given) belongs > 100 µM.

Another assay deals with HOP-92 NSCLC. As to the kind of experiment: NCI tumour cell line growth inhibition, 48 h.
In turn, `CCOc1cc(NC(C)=O)ccc1C(=O)NN1C(=O)C(Cl)C1c1ccccc1` (stereo not given) had a TGI of 31.7 µM.
On to `CCCCCCCCCCCCCCCCCCNc1ccn(C2OC(COP(=O)(O)OCC3OC(n4cc(F)c(=O)[nH]c4=O)CC3O)C(O)C2O)c(=O)n1` (stereo not given), for which the TGI is > 100 µM.
Still for that read-out and setting: the value for `CC(C)=CCC/C(C)=C/CC/C(C)=C/CC/C(C)=C/C=C/C=C(\C)CC/C=C(\C)CC/C=C(\C)CCC=C(C)C` was > 75.5 µM.
The same measure, in the same setting: the value for `CN(CCCCCl)P(=O)(OCc1ccc([N+](=O)[O-])o1)OC[C@H]1O[C@@H](n2cc(F)c(=O)[nH]c2=O)C[C@@H]1O` (stereo not given in full) was 20.3 µM; that for `CCCCCCCCCCCCCCCCCCNC(=O)C(N)Cc1ccc(OCc2ccccc2)cn1` (stereo not given) was 41.3 µM; that for `CC(C)Cn1cnc2c(NCC(C)O)nc3ccccc3c21` (stereo not given) was > 100 µM.

In the next assay the test system is DU-145 prostate. As to the kind of experiment: NCI tumour cell line growth inhibition, 48 h.
In turn, `CCOc1cc(NC(C)=O)ccc1C(=O)NN1C(=O)C(Cl)C1c1ccccc1` (stereo not given) displayed a TGI of 32.2 µM.
`CCCCCCCCCCCCCCCCCCNc1ccn(C2OC(COP(=O)(O)OCC3OC(n4cc(F)c(=O)[nH]c4=O)CC3O)C(O)C2O)c(=O)n1` (stereo not given): the TGI was > 100 µM.
For `CC(C)=CCC/C(C)=C/CC/C(C)=C/CC/C(C)=C/C=C/C=C(\C)CC/C=C(\C)CC/C=C(\C)CCC=C(C)C`, the TGI is > 100 µM.
The same measure, in the same setting: the value for `CN(CCCCCl)P(=O)(OCc1ccc([N+](=O)[O-])o1)OC[C@H]1O[C@@H](n2cc(F)c(=O)[nH]c2=O)C[C@@H]1O` (stereo not given in full) was 40.2 µM; that for `CCCCCCCCCCCCCCCCCCNC(=O)C(N)Cc1ccc(OCc2ccccc2)cn1` (stereo not given) was 43.4 µM.
On to `CC(C)Cn1cnc2c(NCC(C)O)nc3ccccc3c21` (stereo not given), for which the TGI is > 100 µM.

Another assay deals with NCI-H522 lung. As to the kind of experiment: NCI tumour cell line growth inhibition, 48 h.
As to `CCOc1cc(NC(C)=O)ccc1C(=O)NN1C(=O)C(Cl)C1c1ccccc1` (stereo not given), the TGI was 5.82 µM.
Take `CCCCCCCCCCCCCCCCCCNc1ccn(C2OC(COP(=O)(O)OCC3OC(n4cc(F)c(=O)[nH]c4=O)CC3O)C(O)C2O)c(=O)n1` (stereo not given): the TGI is > 100 µM.
On the same count and under the same terms, the value for `CC(C)=CCC/C(C)=C/CC/C(C)=C/CC/C(C)=C/C=C/C=C(\C)CC/C=C(\C)CC/C=C(\C)CCC=C(C)C` was 31.4 µM; that for `CN(CCCCCl)P(=O)(OCc1ccc([N+](=O)[O-])o1)OC[C@H]1O[C@@H](n2cc(F)c(=O)[nH]c2=O)C[C@@H]1O` (stereo not given in full) was 19.5 µM.
On the same count and under the same terms, to `CCCCCCCCCCCCCCCCCCNC(=O)C(N)Cc1ccc(OCc2ccccc2)cn1` (stereo not given) belongs 38.5 µM; to `CC(C)Cn1cnc2c(NCC(C)O)nc3ccccc3c21` (stereo not given), > 100 µM.

The values are drawn from PubChem BioAssay (NCI).
